Measurements taken from patent US11497713B2, “Combination taxoid nanoemulsion with immunotherapy in cancer” (TargaGenix, Inc., priority 2017, dated 2022).

Tests used:
[1] = tested on: drug-resistant colon tumor xenografts; assay: Drug-resistant colon tumor xenografts; type: in vivo; details: all surviving mice
[2] = tested on: human PANC-1 pancreatic tumor xenograft; assay: Human PANC-1 pancreatic tumor xenograft, schedule comparison (FIG. 3); type: in vivo, RPCI SCID mice
Excerpt: In FIG. 3, this experiment compared a q7d×3 with a q3d×3 schedule for paclitaxel and DHA-SBT-1214 using a human PANC-1 pancreatic tumor xenograft in RPCI SCID mice. […] Paclitaxel was only weakly effective, showing tumor growth delays of 18 days with q7d×3 schedule and 13 days with q3d×3 schedule and no CRs.

[3] = molecular target: P-glycoprotein (P-gp) transporter (Homo sapiens, UniProt P08183); details: cited from earlier work
Sequence of P-glycoprotein (P-gp) transporter (P08183 whole entry): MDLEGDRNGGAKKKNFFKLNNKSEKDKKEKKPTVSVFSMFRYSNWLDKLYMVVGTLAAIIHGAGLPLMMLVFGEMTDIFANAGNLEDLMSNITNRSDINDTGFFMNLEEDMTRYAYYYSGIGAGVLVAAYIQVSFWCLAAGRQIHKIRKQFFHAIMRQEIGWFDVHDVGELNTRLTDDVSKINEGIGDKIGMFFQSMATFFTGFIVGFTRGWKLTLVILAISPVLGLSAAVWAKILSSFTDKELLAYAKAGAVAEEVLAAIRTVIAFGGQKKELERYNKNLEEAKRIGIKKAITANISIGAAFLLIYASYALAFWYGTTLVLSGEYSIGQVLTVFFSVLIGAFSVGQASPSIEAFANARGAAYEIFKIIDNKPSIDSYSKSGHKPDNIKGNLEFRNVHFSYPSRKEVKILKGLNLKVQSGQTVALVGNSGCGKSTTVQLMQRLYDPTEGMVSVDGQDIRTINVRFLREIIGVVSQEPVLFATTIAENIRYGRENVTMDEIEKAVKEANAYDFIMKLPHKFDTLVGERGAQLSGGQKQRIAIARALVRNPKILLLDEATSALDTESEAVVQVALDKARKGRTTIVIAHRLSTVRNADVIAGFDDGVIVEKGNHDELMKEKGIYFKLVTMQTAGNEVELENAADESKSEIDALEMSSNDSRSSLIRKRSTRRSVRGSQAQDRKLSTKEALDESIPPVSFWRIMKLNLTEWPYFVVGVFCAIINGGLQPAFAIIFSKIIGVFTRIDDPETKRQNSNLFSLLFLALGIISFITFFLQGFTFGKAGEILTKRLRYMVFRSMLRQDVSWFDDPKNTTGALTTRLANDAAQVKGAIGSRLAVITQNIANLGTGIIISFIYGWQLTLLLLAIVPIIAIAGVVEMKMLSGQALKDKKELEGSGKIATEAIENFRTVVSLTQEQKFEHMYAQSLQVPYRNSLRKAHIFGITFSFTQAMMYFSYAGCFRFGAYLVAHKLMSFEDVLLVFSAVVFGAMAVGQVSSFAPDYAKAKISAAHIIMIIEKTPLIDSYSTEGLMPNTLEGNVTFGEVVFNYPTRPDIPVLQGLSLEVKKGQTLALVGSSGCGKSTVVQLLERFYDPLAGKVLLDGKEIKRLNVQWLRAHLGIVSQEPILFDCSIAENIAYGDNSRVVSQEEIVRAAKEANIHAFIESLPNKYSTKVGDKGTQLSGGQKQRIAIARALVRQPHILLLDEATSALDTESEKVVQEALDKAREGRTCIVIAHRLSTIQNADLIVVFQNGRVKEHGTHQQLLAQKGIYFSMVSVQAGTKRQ

For `CC/C=C\C/C=C\C/C=C\C/C=C\C/C=C\C/C=C\CCC(=O)O[C@@H](C(=O)O[C@H]1C[C@@]2(O)[C@@H](OC(=O)c3ccccc3)[C@@H]3[C@]4(OC(C)=O)CO[C@@H]4C[C@H](O)[C@@]3(C)C(=O)[C@H](OC(=O)C3CC3)C(=C1C)C2(C)C)[C@H](C=C(C)C)NC(=O)OC(C)(C)C` [DHA-SBT-1214, Docosahexaenoic acid conjugate of SBT-1214], the tumor growth delay [1] was over 167 days, the tumor regression [1] was “complete regression” and the toxic deaths ([2]; 300 mg/kg total dose) was “one toxic death”. For the same compound, the “complete responses (CRs)” value ([2]; PANC-1 xenograft) was “achieved CRs and essentially were cured”, the tumor growth delay ([2]; both schedules (q7d×3 and q3d×3)) was over 90 days and the MTD ([2]; total dosage (80 mg/kg×3 inj)) was 240 mg/kg. The “substrate for MDR mechanisms such as P-gp over-expression” value [3] was “not a substrate”.
